In the oligonucleotide strings, read from the 5' end, every base follows the letter of its sugar. An asterisk marks phosphorothioate; unmarked linkages are phosphodiester. Other units and linkages are bracketed, terminal groups are in braces. A string of capitals states the bases alone. d = 2'-deoxy (DNA); m = 2'-O-methyl; r = 2'-OH (RNA)
System: PCSK9 mRNA
Assay: PCSK9 siRNA screening in HepG2 cells (lipofectamine 2000 transfection, PCSK9 mRNA by Quantigene, normalized to GAP-DH)
Assay type: cell-based, human
Settings: for Mean percent remaining mRNA transcript at siRNA concentration/in cell type 30 nM/HepG2: 30 nM siRNA; for Mean percent remaining mRNA transcript at siRNA concentration/in cell type 3 nM/HepG2: 3 nM siRNA; for Mean percent remaining mRNA transcript at siRNA concentration/in cell type 100 nM/HepG2: 100 nM siRNA
Protocol: HuH-7 cells were obtained from JCRB Cell Bank (Japanese Collection of Research Bioresources) (Shinjuku, Japan, cat. No.: JCRB0403) Cells were cultured in Dulbecco's MEM (Biochrom AG, Berlin, Germany, cat. No. F0435) supplemented to contain 10% fetal calf serum (FCS) (Biochrom AG, Berlin, Germany, cat. No. S0115), Penicillin 100 U/ml, Streptomycin 100 μg/ml (Biochrom AG, Berlin, Germany, cat. No. A2213) and 2 mM L-Glutamin (Biochrom AG, Berlin, Germany, cat. No K0282) at 37° C. in an atmosphere with 5% CO2 in a humidified incubator (Heraeus HERAcell, Kendro Laboratory Products, Langenselbold, Germany) HepG2 and HeLa cells were obtained from American Type Culture Collection (Rockville, Md., cat. No. HB-8065) and cultured in MEM (Gibco Invitrogen, Karlsruhe, Germany, cat. No. 21090-022) supplemented to contain 10% fetal calf serum (FCS) (Biochrom AG, Berlin, Germany, cat. No. S0115), Penicillin 100 U/ml, Streptomycin 100 μg/ml (Biochrom AG, Berlin, Germany, cat. No. A2213), 1× Non Essential Amino Acids (Biochrom AG, Berlin, Germany, cat. No. K-0293), and 1 mM Sodium Pyruvate (Biochrom AG, Berlin, Germany, cat. No. L-0473) at 37° C. in an atmosphere with 5% CO2 in a humidified incubator (Heraeus HERAcell, Kendro Laboratory Products, Langenselbold, Germany).
For transfection with siRNA, HuH7, HepG2, or HeLa cells were seeded at a density of 2.0×10^4 cells/well in 96-well plates and transfected directly. Transfection of siRNA (30 nM for single dose screen) was carried out with lipofectamine 2000 (Invitrogen GmbH, Karlsruhe, Germany, cat. No. 11668-019) as described by the manufacturer.
24 hours after transfection HuH7 and HepG2 cells were lysed and PCSK9 mRNA levels were quantified with the Quantigene Explore Kit (Genosprectra, Dumbarton Circle Fremont, USA, cat. No. QG-000-02) according to the protocol. PCSK9 mRNA levels were normalized to GAP-DH mRNA. For each siRNA eight individual datapoints were collected. siRNA duplexes unrelated to PCSK9 gene were used as control. The activity of a given PCSK9 specific siRNA duplex was expressed as percent PCSK9 mRNA concentration in treated cells relative to PCSK9 mRNA concentration in cells treated with the control siRNA duplex.
Tables 1b and 2b (and FIG. 6A) summarize the results and provide examples of in vitro screens in different cell lines at different doses. Silencing of PCSK9 transcript was expressed as percentage of remaining transcript at a given dose.
Very active sequences are those that have less than 60% of transcript remaining after treatment with a dose less than or equal to 100 nM. Active sequences are those that have less than 90% transcript remaining after treatment with a high dose (100 nM).

In the case of “AD-9561: PCSK9 siRNA (sense rGrArCrArCrCrArGrCrArUrArCrArGrArGrUrGdT*dT; antisense rCrArCrUrCrUrGrUrArUrGrCrUrGrGrUrGrUrCdT*dT)”, the “Mean percent remaining mRNA transcript at siRNA concentration/in cell type 30 nM/HepG2” value is reported as 64%.

In the case of “AD-9514: PCSK9 siRNA (sense rGrUrArCrCrGrGrGrCrGrGrArUrGrArArUrArCdT*dT; antisense rGrUrArUrUrCrArUrCrCrGrCrCrCrGrGrUrArCdT*dT)”, the “Mean percent remaining mRNA transcript at siRNA concentration/in cell type 30 nM/HepG2” value is reported as 57%.

In the case of “AD-9555: PCSK9 siRNA (sense rGrUrCrArGrGrArGrCrCrGrGrGrArCrGrUrCrAdT*dT; antisense rUrGrArCrGrUrCrCrCrGrGrCrUrCrCrUrGrArCdT*dT)”, the “Mean percent remaining mRNA transcript at siRNA concentration/in cell type 30 nM/HepG2” value is reported as 34%.

For “AD-9653: PCSK9 siRNA (sense rGmCmCrArAmCmCmCrGmCmUmCmCrAmCmUrAmCmCdT*dT; antisense rGrGmUrArGrUrGrGrArGrCrGrGrGrUrUrGrGrCdT*dT)”, the “Mean percent remaining mRNA transcript at siRNA concentration/in cell type 30 nM/HepG2” value was 86%.

In the case of “AD-9660: PCSK9 siRNA (sense rGrGrAmCrGrAmUrGmCmCmUrGmCmCmUmCmUrAmCdT*dT; antisense rGmUrArGrArGrGmCrArGrGmCrArUrCrGrUrCrCdT*dT)”, the “Mean percent remaining mRNA transcript at siRNA concentration/in cell type 3 nM/HepG2” value is reported as 79% and the “Mean percent remaining mRNA transcript at siRNA concentration/in cell type 30 nM/HepG2” value is reported as 89%.

“AD-9595: PCSK9 siRNA (sense rCrUrGrArGrGrArCrCrArGrCrGrGrGrUrArCrUdT*dT; antisense rArGrUrArCrCrCrGrCrUrGrGrUrCrCrUrCrArGdT*dT)” was tested, and the “Mean percent remaining mRNA transcript at siRNA concentration/in cell type 3 nM/HepG2” value was 32% and the “Mean percent remaining mRNA transcript at siRNA concentration/in cell type 30 nM/HepG2” value was 31%.

“AD-9710: PCSK9 siRNA (sense mCmCmCmUrGrGmCrGrGrGmUrGrGrGmUrAmCrArGdT*dT; antisense rCrUrGmUrArCrCmCrArCrCrCrGrCmCrArGrGrGdT*dT)” was tested, and the “Mean percent remaining mRNA transcript at siRNA concentration/in cell type 30 nM/HepG2” value was 111%.

In the case of “AD-9681: PCSK9 siRNA (sense rGmUmCrArGrGrArGmCmCrGrGrGrAmCrGmUmCrAdT*dT; antisense rUrGrArCrGrUrCrCrCrGrGrCrUrCrCrUrGrArCdT*dT)”, the “Mean percent remaining mRNA transcript at siRNA concentration/in cell type 30 nM/HepG2” value is reported as 55%.

“AD-9542: PCSK9 siRNA (sense rArUrCrGrArGrGrGrCrArGrGrGrUrCrArUrGrGdT*dT; antisense rCrCrArUrGrArCrCrCrUrGrCrCrCrUrCrGrArUdT*dT)” was tested, and the “Mean percent remaining mRNA transcript at siRNA concentration/in cell type 30 nM/HepG2” value was 160%.

In the case of “AD-9587: PCSK9 siRNA (sense rArCrArUrUrUrArUrCrUrUrUrUrGrGrGrUrCrUdT*dT; antisense rArGrArCrCrCrArArArArGrArUrArArArUrGrUdT*dT)”, the “Mean percent remaining mRNA transcript at siRNA concentration/in cell type 3 nM/HepG2” value is reported as 49% and the “Mean percent remaining mRNA transcript at siRNA concentration/in cell type 30 nM/HepG2” value is reported as 63%.

With “AD-9763: PCSK9 siRNA (sense rGrArGrGrGmCrArGrGrGmUmCrAmUrGrGmUmCrAdT*dT; antisense rUrGrArCmCrArUrGrArCrCrCrUrGrCrCrCrUrCdT*dT)” the “Mean percent remaining mRNA transcript at siRNA concentration/in cell type 30 nM/HepG2” value was 79%.

For “AD-9751: PCSK9 siRNA (sense mCmUrGrGmUrGrGrArGrGmUrGmUrAmUmCmUmCmCdT*dT; antisense rGrGrArGrAmUrAmCrArCrCrUrCmCrArCmCrArGdT*dT)”, the “Mean percent remaining mRNA transcript at siRNA concentration/in cell type 30 nM/HepG2” value was 60%.

“AD-9535: PCSK9 siRNA (sense rGrArGrUrGrArCrCrArCrCrGrGrGrArArArUrCdT*dT; antisense rGrArUrUrUrCrCrCrGrGrUrGrGrUrCrArCrUrCdT*dT)” was tested, and the “Mean percent remaining mRNA transcript at siRNA concentration/in cell type 30 nM/HepG2” value was 73% and the “Mean percent remaining mRNA transcript at siRNA concentration/in cell type 100 nM/HepG2” value was 48%.

With “AD-9661: PCSK9 siRNA (sense rGrArGmUrGrAmCmCrAmCmCrGrGrGrArArAmUmCdT*dT; antisense rGrArUrUrUrCrCrCrGrGrUrGrGrUmCrArCrUrCdT*dT)” the “Mean percent remaining mRNA transcript at siRNA concentration/in cell type 30 nM/HepG2” value was 83%.

For “AD-9726: PCSK9 siRNA (sense rGmUmCrGmUrGmCmUrGrGmUmCrAmCmCrGmCmUrGdT*dT; antisense mCrArGrCrGrGrUrGrArCmCrArGmCrArCrGrArCdT*dT)”, the “Mean percent remaining mRNA transcript at siRNA concentration/in cell type 30 nM/HepG2” value was 95%.

In the case of “AD-9696: PCSK9 siRNA (sense mCmUrGmCmCrGrGrGmCmCmCrAmCrArAmCrGmCmUdT*dT; antisense rArGrCrGrUrUrGrUrGrGrGrCrCrCrGrGmCrArGdT*dT)”, the “Mean percent remaining mRNA transcript at siRNA concentration/in cell type 30 nM/HepG2” value is reported as 77%.

“AD-9588: PCSK9 siRNA (sense rGrGrUrCrArCrCrGrCrUrGrCrCrGrGrCrArArCdT*dT; antisense rGrUrUrGrCrCrGrGrCrArGrCrGrGrUrGrArCrCdT*dT)” was tested, and the “Mean percent remaining mRNA transcript at siRNA concentration/in cell type 30 nM/HepG2” value was 66%.

“AD-9574: PCSK9 siRNA (sense rCrUrGrCrCrArArGrGrGrArArGrGrGrCrArCrGdT*dT; antisense rCrGrUrGrCrCrCrUrUrCrCrCrUrUrGrGrCrArGdT*dT)” was tested, and the “Mean percent remaining mRNA transcript at siRNA concentration/in cell type 30 nM/HepG2” value was 74%.

“AD-9541: PCSK9 siRNA (sense rGrGrUrGrArGrGrGrUrGrUrCrUrArCrGrCrCrAdT*dT; antisense rUrGrGrCrGrUrArGrArCrArCrCrCrUrCrArCrCdT*dT)” was tested, and the “Mean percent remaining mRNA transcript at siRNA concentration/in cell type 30 nM/HepG2” value was 43%.

For “AD-9678: PCSK9 siRNA (sense rArGrGrArGmCrAmUrGrGrArAmUmCmCmCrGrGmCdT*dT; antisense rGrCrCrGrGrGrArUrUrCmCrArUrGrCrUrCrCrUdT*dT)”, the “Mean percent remaining mRNA transcript at siRNA concentration/in cell type 30 nM/HepG2” value was 76%.

“AD-9649: PCSK9 siRNA (sense mCrArGmCmCrArGrGrAmUmUmCmCrGmCrGmCrGmCdT*dT; antisense rGrCrGrCrGrCrGrGrArArUrCrCrUrGrGrCrUrGdT*dT)” was tested, and the “Mean percent remaining mRNA transcript at siRNA concentration/in cell type 30 nM/HepG2” value was 60%.

“AD-9592: PCSK9 siRNA (sense rCrCrUrArGrArCrArCrCrArGrCrArUrArCrArGdT*dT; antisense rCrUrGrUrArUrGrCrUrGrGrUrGrUrCrUrArGrGdT*dT)” was tested, and the “Mean percent remaining mRNA transcript at siRNA concentration/in cell type 30 nM/HepG2” value was 55% and the “Mean percent remaining mRNA transcript at siRNA concentration/in cell type 100 nM/HepG2” value was 46%.

With “AD-9637: PCSK9 siRNA (sense rGrArGrGrGrCrArGrGrGrUrCrArUrGrGrUrCrAdT*dT; antisense rUrGrArCrCrArUrGrArCrCrCrUrGrCrCrCrUrCdT*dT)” the “Mean percent remaining mRNA transcript at siRNA concentration/in cell type 30 nM/HepG2” value was 83% and the “Mean percent remaining mRNA transcript at siRNA concentration/in cell type 100 nM/HepG2” value was 56%.

“AD-9731: PCSK9 siRNA (sense mUrGrGmUrGrArArGrAmUrGrArGmUrGrGmCrGrAdT*dT; antisense rUrCrGrCmCrArCrUmCrArUrCrUrUmCrArCmCrAdT*dT)” was tested, and the IC50 was 0.32 nM, the “Mean percent remaining mRNA transcript at siRNA concentration/in cell type 3 nM/HepG2” value was 31% and the “Mean percent remaining mRNA transcript at siRNA concentration/in cell type 30 nM/HepG2” value was 31%.

With “AD-9739: PCSK9 siRNA (sense mCrGrArGrGrGmCrArGrGrGmUmCrAmUrGrGmUmCdT*dT; antisense rGrArCmCrArUrGrArCrCrCrUrGrCrCrCrUrCrGdT*dT)” the “Mean percent remaining mRNA transcript at siRNA concentration/in cell type 30 nM/HepG2” value was 109%.
